Eight molecules from ChEMBL document CHEMBL4725257, “Investigation into the influence of an acrylic acid acceptor in organic D-π-A sensitizers against phototoxicity” (Bioorg Med Chem, 2020) can be followed below.

In general, IC50 refers to the concentration that gives 50% inhibition.

Series [1] concerns HeLa. The series can be described thus: Cytotoxicity against human HeLa cells assessed as reduction in cell viability incubated for 48 hrs measured under dark conditions by MTT assay. The format is functional, cell-based. Background: Tetrazolium dyes change colour on reduction, which living cells bring about.
For series [2], the system named is HeLa. As to the kind of experiment: Phototoxicity against human HeLa cells assessed as reduction in cell viability preincubated for 1 hr followed by white LED irradiation for 15 mins and measured after 48 hrs by MTT assay. The format is functional, cell-based. The settings on record: light or radiation study.
The nature of series [3]: Phototoxicity index, ratio of IC50 for cytotoxicity against human HeLa cells measured under dark condition to IC50 for phototoxicity against human HeLa cells upon white LED light irradiation. The format is functional.
Series [4] can be described thus: Drug uptake in lysosomes of human HeLa cell by fluorescence confocal microscopy. In kind it is ADME, subcellular, Lysosome.
Series [5] is described as follows: Photo-oxidation of L-tryptophan assessed as oxidative damage at 10 uM irradiated with white LED light at 15 mins interval for 60 mins by fluorescence based analysis. In kind it is ADME. The conditions noted are these: 1 h.
Series [6] is described as follows: Drug uptake in mitochondria of human HeLa cell by fluorescence confocal microscopy. The format is ADME.
Series [7] is described as follows: Drug uptake in human HeLa cells at 20 uM incubated for 1 hr at 37 degC by fluorescence based analysis. In kind it is ADME, cell-based.
Series [8] can be described thus: Drug uptake in human HeLa cells at 20 uM incubated for 1 hr at 4 degC by fluorescence based analysis. The format is ADME, cell-based.
Series [9] can be described thus: Drug uptake in human HeLa cells at 20 uM pretreated with lipid raft endocytosis inhibitor, methyl-beta-cyclodextrin for 1 hr followed by incubation with compound for 1 hr by fluorescence based analysis. The format is ADME, cell-based.
Series [10] in a line: Drug uptake in human HeLa cells at 20 uM pretreated with clathrin-mediated endocytosis inhibitor, sucrose for 1 hr followed by incubation with compound for 1 hr by fluorescence based analysis. The format is ADME, cell-based.
A short description of series [11]: Drug uptake in human HeLa cells at 20 uM pretreated with endosome fusion inhibitor, wortmannin for 1 hr followed incubation with compound for 1 hr by fluorescence based analysis. The format is ADME, cell-based.
Series [12] is described as follows: Photo-oxidation of L-tryptophan assessed as oxidative damage at 10 uM irradiated with white LED light at 15 mins interval for 60 mins in presence of type 2 singlet oxygen quencher, NaN3 by fluorescence based analysis. In kind it is ADME. The settings on record: 1 h.
The nature of series [13]: Drug uptake in human HeLa cell membrane by fluorescence confocal microscopy. In kind it is ADME, cell membranes.

Turning to `N#CC(C#N)=Cc1ccc(-c2ccc(-c3ccc(N(c4ccccc4)c4ccccc4)cc3)s2)s1`, the IC50 with HeLa [1] is over 100 µM; in the series on HeLa [2], over 74.4 µM.
The corresponding values for `COC(=O)/C(C#N)=C/c1ccc(-c2ccc(-c3ccc(N(c4ccccc4)c4ccccc4)cc3)s2)s1` are over 100 µM and over 100 µM.
Consider `O=C(O)/C=C/c1ccc(-c2ccc(-c3ccc(N(c4ccccc4)c4ccccc4)cc3)s2)s1`, for which the “Ratio IC50” value in series [3] worked out at 460. In addition, the Drug uptake entry in series [4] is “Active”; in series [6] it was “Active”; in series [7], 80 pmol; in series [8], 40 pmol. In series [5], the outcome was Active. The IC50 stood at 13.8 µM with HeLa [1] and 0.046 µM with HeLa [2].
Take `O=C(O)c1ccc(-c2ccc(-c3ccc(N(c4ccccc4)c4ccccc4)cc3)s2)s1`: the Drug uptake in series [9] is listed as 82 pmol; in series [4], “Active”; in series [10] it was 188 pmol; in series [6], “Active”; in series [7], 299 pmol; in series [8] it was 64 pmol. The Drug uptake in series [11] stood at 205 pmol. Moreover, in [3], the “Ratio IC50” value is over 12. Moreover, the outcome in series [5] was Active. Also, the IC50 in the series with HeLa [1] is over 100 µM; in the series on HeLa [2] it was 7.8 µM.
`O=C(O)C(=Cc1ccc(-c2ccc(-c3ccc(N(c4ccccc4)c4ccccc4)cc3)s2)s1)C(=O)O`: the Activity entry was “Not Active” in [12] and “Active” in [5]. The “Ratio IC50” value in series [3] worked out at 91. For the same molecule, the Drug uptake result in series [4] is recorded as “Active”; in series [6] it was “Active”; in series [7] it was 53 pmol; in series [8] it was 36 pmol. In addition, the IC50 was 61.8 µM with HeLa [1] and 0.68 µM with HeLa [2].
For the molecule `O=C(O)CCc1ccc(-c2ccc(-c3ccc(N(c4ccccc4)c4ccccc4)cc3)s2)s1`, the Drug uptake in series [9] is listed as 98 pmol; in [4], “Active”; in series [10] it was 199 pmol; in series [6] it was “Active”; in series [7] it was 232 pmol; in [8], 44 pmol. The Drug uptake in series [11] is on record as 225 pmol. Further, the “Ratio IC50” value in [3] worked out at 18. In addition, the result in [5] was Active. The IC50 in the series with HeLa [1] worked out at 43.4 µM; in the series on HeLa [2] it was 2.4 µM.
Take `c1ccc(N(c2ccccc2)c2ccc(-c3ccc(-c4cccs4)s3)cc2)cc1`: the Drug uptake result is on record as “Active” in series [4], “Active” in [6], 105 pmol in series [7] and 68 pmol in series [8]. In addition, the result in series [5] was Active. For the same molecule, the IC50 with HeLa [1] and in the series with HeLa [2] was over 100 µM throughout.
In the case of `C[n+]1ccc(/C=C/c2ccc(-c3ccc(-c4ccc(N(c5ccccc5)c5ccccc5)cc4)s3)s2)cc1.[I-]`, the Drug uptake in series [9] was 555 pmol; in [4], “Active”; in series [10] it was 591 pmol; in series [6] it was “Active”; in series [7], 747 pmol; in series [8], 344 pmol. Moreover, the Drug uptake entry in series [13] is “Active”; in [11], 649 pmol. Also, the “Ratio IC50” value in series [3] was determined as 3.5. Moreover, the result in series [5] was Active. The IC50 in the series on HeLa [1] was 3.3 µM; with HeLa [2], 0.94 µM.
